Biological target: B*0702 (Homo sapiens, UniProt P01889)
Assay: Class I molecular binding assay (peptide binding to purified HLA class I molecule)
Details: binding value of the peptide for HLA allele B*0702; kind of value and unit not given

B*0702: 0.1800
Sequence: SPALNKMFBQI [Peptide 34.0397]
